Test results as given in patent US8791123B2, “Substituted pyrazolo[1,5-a]pyrimidine compounds as Trk kinase inhibitors” (Array Biopharma, Inc., priority 2009, dated 2014).
Like-named read-outs stand apart in the source and are kept apart here.

How the values were obtained:
[1] = biological target: TrkA (histidine-tagged recombinant human TrkA, cytoplasmic domain) (Homo sapiens (Human), UniProt P04629); test: TrkA ELISA Assay; assay type: biochemical; details: Table 1; ELISA, 500 μM ATP; read-out: TrkA Enzyme IC50
Outline: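 ELISA read-out: a peroxidase-linked anti-phosphotyrosine antibody (PY20, 0.2 μg/mL) with TMB substrate, absorbance at 450 nm after acid stop. The plate-bound substrate was poly(Glu,Ala,Tyr; 6:3:1) at 0.025 mg/mL, phosphorylated by the recombinant His-tagged human TrkA cytoplasmic domain in the presence of inhibitors.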

Human Jak2 kinase domain = Human Jak2 kinase domain (Homo sapiens (Human), UniProt O60674); test: Jak2 Inhibition Assay (Omnia kinase assay); assay type: biochemical; details: read-out: Jak2 Enzyme IC50
[2] = Table 1, 500 μM ATP, >1000 nM when >50% inhibition not observed at 1000 nM

Sequence of TrkA (histidine-tagged recombinant human TrkA, cytoplasmic domain) (P04629 440-796): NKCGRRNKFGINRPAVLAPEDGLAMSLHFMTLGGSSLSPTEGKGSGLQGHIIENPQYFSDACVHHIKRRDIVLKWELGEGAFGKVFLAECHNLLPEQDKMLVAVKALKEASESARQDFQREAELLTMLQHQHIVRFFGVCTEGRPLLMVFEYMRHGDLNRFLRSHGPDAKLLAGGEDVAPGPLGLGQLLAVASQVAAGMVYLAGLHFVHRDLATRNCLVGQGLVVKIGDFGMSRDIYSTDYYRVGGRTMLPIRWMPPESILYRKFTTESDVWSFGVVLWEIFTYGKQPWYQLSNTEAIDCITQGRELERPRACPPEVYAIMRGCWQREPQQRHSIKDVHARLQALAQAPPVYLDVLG
Sequence of Human Jak2 kinase domain (O60674 808-1132): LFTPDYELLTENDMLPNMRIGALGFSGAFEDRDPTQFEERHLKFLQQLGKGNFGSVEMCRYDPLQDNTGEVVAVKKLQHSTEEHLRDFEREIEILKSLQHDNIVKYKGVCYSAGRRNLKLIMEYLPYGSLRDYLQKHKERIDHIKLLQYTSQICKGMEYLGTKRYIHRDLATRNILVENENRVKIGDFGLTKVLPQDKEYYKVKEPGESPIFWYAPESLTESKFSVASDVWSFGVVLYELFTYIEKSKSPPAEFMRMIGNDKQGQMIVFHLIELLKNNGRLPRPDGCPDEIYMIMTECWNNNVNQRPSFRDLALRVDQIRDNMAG

| SMILES | IC50 [1] | IC50 (Human Jak2 kinase domain; [2]) | IC50 (Human Jak2 kinase domain) |
| --- | --- | --- | --- |
| O=C(N[C@@H]1CCC[C@H]1O)c1cnn2ccc(N3CCC[C@@H]3c3cncc(F)c3)nc12 [Example 133, 5-((R)-2-(5-fluoropyridin-3-yl)pyrrolidin-1-yl)-N-((1R,2R)-2-hydroxycyclopentyl)pyrazolo[1,5-a]pyrimidine-3-carboxamide] | 16 nM | > 1000 nM |  |
| NC(=O)c1cnn2ccc(N3CCC[C@@H]3c3cc(F)ccc3OCCN3CCOCC3)nc12 [Example 86, (R)-5-(2-(5-fluoro-2-(2-morpholinoethoxy)phenyl)pyrrolidin-1-yl)pyrazolo[1,5-a]pyrimidine-3-carboxamide] | 26.7 nM | > 1000 nM |  |
| CC1(O)CN(C(=O)c2cnn3ccc(N4CCC[C@@H]4c4cncc(F)c4)nc23)C1 [Example 92, (R)-(5-(2-(5-fluoropyridin-3-yl)pyrrolidin-1-yl)pyrazolo[1,5-a]pyrimidin-3-yl)(3-hydroxy-3-methylazetidin-1-yl)methanone] | 1010 nM | > 1000 nM |  |
| CC(C)(CO)CNC(=O)c1cnn2ccc(N3CCC[C@@H]3c3cncc(F)c3)nc12 [Example 125, (R)-5-(2-(5-fluoropyridin-3-yl)pyrrolidin-1-yl)-N-(3-hydroxy-2,2-dimethylpropyl)pyrazolo[1,5-a]pyrimidine-3-carboxamide] | 12.8 nM | > 1000 nM |  |
| Cn1cc(F)cc([C@H]2CCCN2c2ccn3ncc(C(=O)Nc4ccc(F)cn4)c3n2)c1=O [Example 239, (R)-5-(2-(5-fluoro-1-methyl-2-oxo-1,2-dihydropyridin-3-yl)pyrrolidin-1-yl)-N-(5-fluoropyridin-2-yl)pyrazolo[1,5-a]pyrimidine-3-carboxamide] | 10.1 nM | > 1000 nM |  |
| Cn1cc(F)cc([C@H]2CCCN2c2ccn3ncc(C(=O)N[C@@H]4CCCC[C@H]4O)c3n2)c1=O [Example 234, 5-((R)-2-(5-fluoro-1-methyl-2-oxo-1,2-dihydropyridin-3-yl)pyrrolidin-1-yl)-N-((1R,2R)-2-hydroxycyclohexyl)pyrazolo[1,5-a]pyrimidine-3-carboxamide] | 10.7 nM | > 1000 nM |  |
| CC(C)(C)NC(=O)c1cnn2ccc(N3C[C@H](O)C[C@@H]3c3cccc(F)c3)nc12 [Example 42, N-tert-butyl-5-((2R,4R)-2-(3-fluorophenyl)-4-hydroxypyrrolidin-1-yl)pyrazolo[1,5-a]pyrimidine-3-carboxamide] | 48.3 nM | > 1000 nM |  |
| O=C(N[C@H]1CC[C@H](O)C1)c1cnn2ccc(N3CCC[C@@H]3c3cc(F)ccc3F)nc12 [Example 169, 5-((R)-2-(2,5-difluorophenyl)pyrrolidin-1-yl)-N-((1S,3S)-3-hydroxycyclopentyl)pyrazolo[1,5-a]pyrimidine-3-carboxamide] | 0.9 nM | 759 nM |  |
| O=C(N[C@H]1CC[C@H](O)C1)c1cnn2ccc(N3CCC[C@@H]3c3cncc(F)c3)nc12 [Example 105, 5-((R)-2-(5-fluoropyridin-3-yl)pyrrolidin-1-yl)-N-((1S,3S)-3-hydroxycyclopentyl)pyrazolo[1,5-a]pyrimidine-3-carboxamide] | 25.4 nM | > 1000 nM |  |
| COc1ncc(F)cc1[C@H]1CCCN1c1ccn2ncc(C(=O)NC(C)(C)CF)c2n1 [Example 81, (R)-5-(2-(5-fluoro-2-methoxypyridin-3-yl)pyrrolidin-1-yl)-N-(1-fluoro-2-methylpropan-2-yl)pyrazolo[1,5-a]pyrimidine-3-carboxamide] | 1.15 nM |  | 666 nM |
| COc1ccc(F)cc1[C@H]1CCCN1c1ccn2ncc(C(=O)NC3CC3)c2n1 [Example 48, (R)—N-cyclopropyl-5-(2-(5-fluoro-2-methoxyphenyl)pyrrolidin-1-yl)pyrazolo[1,5-a]pyrimidine-3-carboxamide] | 0.6 nM |  | 429 nM |
| O=C(NC1CC1)c1cnn2ccc(N3CCC[C@@H]3c3cc(F)cc(OCC(O)CO)c3)nc12 (stereo partly drawn) [Example 208, N-cyclopropyl-5-((2R)-2-(3-(2,3-dihydroxypropoxy)-5-fluorophenyl)pyrrolidin-1-yl)pyrazolo[1,5-a]pyrimidine-3-carboxamide] | 1.7 nM | > 1000 nM |  |
